The text below walks through data of patent US20250011368A1, “DLL3 TARGETING PEPTIDES AND CONSTRUCTS THEREOF” (MARIANA ONCOLOGY INC., priority 2023, published 2025).

Numbered stars: 1 amine (or outer) side, 2 acyl side, 3 side chain; on linkers, the order of the positions; unused ones are H or OH. Bridge positions count the residues as written; N and C are the ends. Square brackets hold non-standard residues; d marks the D form. Peptide text beside a SMILES is read from it. * marks the point of attachment. ξ: configuration not given here. X2 = O=C(O)CN1CCN(CC(=O)O)CCN(CC(=O)NCCOCCOCCOCCOCCOCCOCCOCCOCC(=O)*)CCN(CC(=O)O)CC1; X4 = O=C(O)CN1CCN(CC(=O)O)CCN(CC(=O)N[C@H]2CC[C@H](CC(=O)*)CC2)CCN(CC(=O)O)CC1; DOTA = O=C(O)CN1CCN(CC(=O)O)CCN(CC(=O)*)CCN(CC(=O)O)CC1; X3 = CC[C@H](c1c[nH]c2ccccc12)[C@H](N[*:1])C(=O)[*:2]; Trp(7-Cl) = N[C@@H](Cc1c[nH]c2c(Cl)cccc12)C(=O)O; Phe(4-CF3) = N[C@@H](Cc1ccc(C(F)(F)F)cc1)C(=O)O; Trp(5-F) = N[C@@H](Cc1c[nH]c2ccc(F)cc12)C(=O)O; Trp(7-aza) = N[C@@H](Cc1c[nH]c2ncccc12)C(=O)O; Pro(trans-4-F) = O=C(O)[C@@H]1C[C@@H](F)CN1; Phe(4-F) = N[C@@H](Cc1ccc(F)cc1)C(=O)O; γGlu = O=C(O)[C@H](CCC(=O)[*:2])N[*:1]; 2Nal = N[C@@H](Cc1ccc2ccccc2c1)C(=O)O; Gly(4-THP) = N[C@H](C(=O)O)C1CCOCC1; ξW = NC(Cc1c[nH]c2ccccc12)C(=O)O; Cba = N[C@@H](CC1CCC1)C(=O)O; Chg = N[C@H](C(=O)O)C1CCCCC1; Tle = CC(C)(C)[C@H](N)C(=O)O; Aze = O=C(O)[C@@H]1CCN1; Dab = NCC[C@H](N)C(=O)O; Abu = CC[C@H](N)C(=O)O; Hexanoyl = CCCCCC(=O)*

The assay concerns the target T1, human DLL3 (Homo sapiens, UniProt Q9NYJ7).
T1 sequence (Q9NYJ7 27-618): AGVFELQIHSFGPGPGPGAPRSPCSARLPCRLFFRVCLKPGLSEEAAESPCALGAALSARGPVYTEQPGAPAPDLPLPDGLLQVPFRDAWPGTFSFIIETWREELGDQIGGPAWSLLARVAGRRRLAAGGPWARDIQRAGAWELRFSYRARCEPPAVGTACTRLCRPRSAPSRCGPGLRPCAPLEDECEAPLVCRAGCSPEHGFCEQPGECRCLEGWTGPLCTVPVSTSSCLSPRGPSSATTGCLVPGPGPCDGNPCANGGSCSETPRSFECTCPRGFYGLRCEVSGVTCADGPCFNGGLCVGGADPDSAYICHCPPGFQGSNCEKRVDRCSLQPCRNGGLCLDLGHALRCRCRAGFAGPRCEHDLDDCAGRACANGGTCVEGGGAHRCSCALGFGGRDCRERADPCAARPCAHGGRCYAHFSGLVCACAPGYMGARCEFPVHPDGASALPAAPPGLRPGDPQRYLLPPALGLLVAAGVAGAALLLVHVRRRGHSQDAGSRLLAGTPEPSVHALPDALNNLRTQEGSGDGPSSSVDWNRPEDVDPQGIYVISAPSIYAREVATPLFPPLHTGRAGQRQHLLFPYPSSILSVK
Description: Affinity determination by Surface Plasmon Resonance (SPR). It is filed as binding. Particulars: 25° C., biotinylated human DLL3 immobilized on streptavidin sensor chip, 1:1 binding model; read-out: SPR KD. An outline of the steps: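 Biotinylated human DLL3 was captured on a streptavidin chip with a reference surface. Compounds at several concentrations were injected at 100 μL/minute in phosphate buffer (137 mM NaCl, 2.7 mM KCl, 0.05% P20, 2% DMSO). Affinity and kinetics came from 1:1 model fits of the sensorgrams.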
One may read the Kd as the concentration at which binding is half-saturated. Regarding `CCCCCC(=O)NCC[C@@H]1NC(=O)[C@@H](NC(=O)[C@@H](NC(=O)[C@@H](NC(=O)[C@H](Cc2c[nH]c3ccccc23)NC(C)=O)[C@@H](C)O)[C@@H](C)CC)CSSC[C@@H](C(=O)N[C@@H](Cc2c[nH]c3ccccc23)C(=O)N2CCC[C@H]2C(=O)N[C@H](CCCCNC(=O)CN2CCN(CC(=O)O)CCN(CC(=O)O)CCN(CC(=O)O)CC2)C(N)=O)NC(=O)[C@H](CC(=O)O)NC(=O)[C@H](Cc2cnc[nH]2)NC(=O)[C@H](Cc2c[nH]c3ccccc23)NC(=O)[C@H](CC(N)=O)NC1=O` [compound 90, Ac-W-T-I-C(3)-(DAB-4-NHCOC5H11)-N-W-H-D-C(3)-W-P-[D-Lys(DOTA)]-NH2] (Ac-WTIC[Dab](Hexanoyl)NWHDCWP[dK](DOTA)-NH2; disulfide 4-10), the Kd lay in the range of 10 to 100 nM.

With `CC(=O)N[C@@H](Cc1c[nH]c2ccc(F)cc12)C(=O)N[C@H](C(=O)N[C@H](C(=O)N[C@H]1CSSC[C@@H](C(=O)N[C@@H](Cc2c[nH]c3ncccc23)C(=O)N2C[C@H](F)C[C@H]2C(=O)N[C@H](CCCCNC(=O)CN2CCN(CC(=O)O)CCN(CC(=O)O)CCN(CC(=O)O)CC2)C(N)=O)NC(=O)[C@H](CC(=O)O)NC(=O)[C@H](Cc2cnc[nH]2)NC(=O)[C@H](Cc2ccc(F)cc2)NC(=O)[C@H](CC(N)=O)NC(=O)[C@H](CC(N)=O)NC1=O)C1CCOCC1)[C@@H](C)O` [compound 131, Ac-(5Fluoro-W)-T-(THPG)-C(3)-N-N-(4Fluoro-F)-H-D-C(3)-(7Aza-W)-(trans4Fluoro-P)-[D-Lys(DOTA)]-NH2] (Ac-[Trp(5-F)]T[Gly(4-THP)]CNN[Phe(4-F)]HDC[Trp(7-aza)][Pro(trans-4-F)][dK](DOTA)-NH2; disulfide 4-10), the Kd fell in the range of 1 to 10 nM. `CC[C@H](C)[C@H](NC(=O)[C@@H](NC(=O)[C@H](Cc1c[nH]c2ccccc12)NC(C)=O)[C@@H](C)O)C(=O)N[C@H]1CSSC[C@@H](C(=O)NC(Cc2c[nH]c3ccccc23)C(=O)N2CCC[C@H]2C(=O)N[C@H](CCCCNC(=O)COCCOCCOCCOCCOCCOCCOCCOCCNC(=O)CN2CCN(CC(=O)O)CCN(CC(=O)O)CCN(CC(=O)O)CC2)C(N)=O)NC(=O)[C@H](CC(=O)O)NC(=O)[C@H](Cc2cnc[nH]2)NC(=O)[C@H](Cc2c[nH]c3ccccc23)NC(=O)[C@H](CC(N)=O)NC(=O)[C@H](CC(N)=O)NC1=O` (stereo partly drawn) [compound 89, Ac-W-T-I-C(3)-N-N-W-H-D-C(3)-W-P-(D-Lys)-PEG8-DOTA-NH2] (Ac-WTICNNWHDC[ξW]P[dK](X2)-NH2; disulfide 4-10): the Kd lay in the range of 1 to 10 nM. In the case of `CC[C@H](NC(C)=O)C(=O)N[C@H](C(=O)N[C@H](C(=O)N[C@H]1CSSC[C@@H](C(=O)N[C@@H](Cc2c[nH]c3ccccc23)C(=O)N2CCC[C@H]2C(=O)N[C@@H](CCC(=O)N[C@@H](CCC(=O)N[C@@H](CCC(=O)N[C@H](CCCCNC(=O)CN2CCN(CC(=O)O)CCN(CC(=O)O)CCN(CC(=O)O)CC2)C(N)=O)C(=O)O)C(=O)O)C(=O)O)NC(=O)[C@H](CC(=O)O)NC(=O)[C@H](Cc2cnc[nH]2)NC(=O)[C@H](Cc2ccc3ccccc3c2)NC(=O)[C@H](CC(N)=O)NC(=O)[C@H](CC(N)=O)NC1=O)[C@H](CC)c1c[nH]c2ccccc12)[C@@H](C)O` [compound 234, Ac-W-T-I-C(3)-N-N-(2Nal)-H-D-C(3)-W-P-gE-gE-gE-[D-Lys(DOTA)]-NH2] (Ac-[Abu]T[X3]CNN[2Nal]HDCWP[γGlu][γGlu][γGlu][dK](DOTA)-NH2; disulfide 4-10), the Kd was below 1 nM. The value for `CC(=O)N[C@@H](Cc1c[nH]c2ccc(F)cc12)C(=O)N[C@H](C(=O)N[C@H](C(=O)N[C@H]1CSSC[C@@H](C(=O)N[C@@H](Cc2c[nH]c3ncccc23)C(=O)N2C[C@H](F)C[C@H]2C(=O)N[C@H](CCCCNC(=O)CN2CCN(CC(=O)O)CCN(CC(=O)O)CCN(CC(=O)O)CC2)C(N)=O)NC(=O)[C@H](CC(=O)O)NC(=O)[C@H](Cc2cnc[nH]2)NC(=O)[C@H](Cc2ccc3ccccc3c2)NC(=O)[C@H](CC(N)=O)NC(=O)[C@H](CC(N)=O)NC1=O)C1CCCCC1)[C@@H](C)O` [compound 258, Ac-(5Fluoro-W)-T-(Chg)-C(3)-N-N-(2Nal)-H-D-C(3)-(7Aza-W)-(trans4Fluoro-P)-[D-Lys(DOTA)]-NH2] (Ac-[Trp(5-F)]T[Chg]CNN[2Nal]HDC[Trp(7-aza)][Pro(trans-4-F)][dK](DOTA)-NH2; disulfide 4-10) was below 1 nM.

On to `CC(=O)N[C@@H](Cc1c[nH]c2ccc(F)cc12)C(=O)N[C@H](C(=O)N[C@@H](CC1CCC1)C(=O)N[C@H]1CSSC[C@@H](C(=O)N[C@@H](Cc2c[nH]c3ncccc23)C(=O)N2CC[C@H]2C(=O)N[C@H](CCCCNC(=O)CN2CCN(CC(=O)O)CCN(CC(=O)O)CCN(CC(=O)O)CC2)C(N)=O)NC(=O)[C@H](CC(=O)O)NC(=O)[C@H](Cc2cnc[nH]2)NC(=O)[C@H](Cc2ccc(C(F)(F)F)cc2)NC(=O)[C@H](CC(N)=O)NC(=O)[C@H](CC(N)=O)NC1=O)[C@@H](C)O` [compound 142, Ac-(5Fluoro-W)-T-(CBA)-C(3)-N-N-(4CF3-F)-H-D-C(3)-(7Aza-W)-(Aze)-[D-Lys(DOTA)]-NH2] (Ac-[Trp(5-F)]T[Cba]CNN[Phe(4-CF3)]HDC[Trp(7-aza)][Aze][dK](DOTA)-NH2; disulfide 4-10), for which the Kd is 1 to 10 nM.

Take `CC(=O)N[C@@H](Cc1c[nH]c2ccc(F)cc12)C(=O)N[C@H](C(=O)N[C@H](C(=O)N[C@H]1CSSC[C@@H](C(=O)N[C@@H](Cc2c[nH]c3ncccc23)C(=O)N2C[C@H](F)C[C@H]2C(=O)N[C@H](CCCCNC(=O)CN2CCN(CC(=O)O)CCN(CC(=O)O)CCN(CC(=O)O)CC2)C(N)=O)NC(=O)[C@H](CC(=O)O)NC(=O)[C@H](Cc2cnc[nH]2)NC(=O)[C@H](Cc2ccc3ccccc3c2)NC(=O)[C@H](CC(N)=O)NC(=O)[C@H](CC(N)=O)NC1=O)C(C)(C)C)[C@@H](C)O` [compound 257, Ac-(5Fluoro-W)-T-(Tbg)-C(3)-N-N-(2Nal)-H-D-C(3)-(7Aza-W)-(trans4Fluoro-P)-[D-Lys(DOTA)]-NH2] (Ac-[Trp(5-F)]T[Tle]CNN[2Nal]HDC[Trp(7-aza)][Pro(trans-4-F)][dK](DOTA)-NH2; disulfide 4-10): the Kd is below 1 nM. Consider `CC(=O)N[C@@H](Cc1c[nH]c2ccccc12)C(=O)N[C@H](C(=O)N[C@H](C(=O)N[C@H]1CSSC[C@@H](C(=O)N[C@@H](Cc2c[nH]c3ncccc23)C(=O)N2CCC[C@H]2C(=O)N[C@H](CCCCNC(=O)C[C@H]2CC[C@H](NC(=O)CN3CCN(CC(=O)O)CCN(CC(=O)O)CCN(CC(=O)O)CC3)CC2)C(N)=O)NC(=O)[C@H](CC(=O)O)NC(=O)[C@H](Cc2cnc[nH]2)NC(=O)[C@H](Cc2ccc3ccccc3c2)NC(=O)[C@H](CC(N)=O)NC(=O)[C@H](CC(N)=O)NC1=O)C1CCCCC1)[C@@H](C)O` [compound 203, Ac-W-T-(Chg)-C(3)-N-N-(2Nal)-H-D-C(3)-(7-Aza-W)-P-[D-Lys(Chx-DOTA)]-NH2] (Ac-WT[Chg]CNN[2Nal]HDC[Trp(7-aza)]P[dK](X4)-NH2; disulfide 4-10), for which the Kd is below 1 nM. With `CC[C@H](C)[C@H](NC(=O)[C@@H](NC(=O)[C@H](Cc1c[nH]c2c(Cl)cccc12)NC(C)=O)[C@@H](C)O)C(=O)N[C@H]1CSSC[C@@H](C(=O)N[C@@H](Cc2c[nH]c3ccccc23)C(=O)N2CCC[C@H]2C(=O)N[C@H](CCCCNC(=O)CN2CCN(CC(=O)O)CCN(CC(=O)O)CCN(CC(=O)O)CC2)C(N)=O)NC(=O)[C@H](CC(=O)O)NC(=O)[C@H](Cc2cnc[nH]2)NC(=O)[C@H](Cc2c[nH]c3ccccc23)NC(=O)[C@H](CC(N)=O)NC(=O)[C@H](CC(N)=O)NC1=O` [compound 226, Ac-(7-CI-W)-T-I-C(3)-N-N-W-H-D-C(3)-W-P-[D-Lys(DOTA)]-NH2] (Ac-[Trp(7-Cl)]TICNNWHDCWP[dK](DOTA)-NH2; disulfide 4-10), the Kd was 1 to 10 nM.

As to `CC(=O)N[C@@H](Cc1c[nH]c2ccc(F)cc12)C(=O)N[C@H](C(=O)N[C@H](C(=O)N[C@H]1CSSC[C@@H](C(=O)N[C@@H](Cc2c[nH]c3ncccc23)C(=O)N2C[C@H](F)C[C@H]2C(=O)N[C@H](CCCCNC(=O)CN2CCN(CC(=O)O)CCN(CC(=O)O)CCN(CC(=O)O)CC2)C(N)=O)NC(=O)[C@H](CC(=O)O)NC(=O)[C@H](Cc2cnc[nH]2)NC(=O)[C@H](Cc2ccc(F)cc2)NC(=O)[C@H](CC(N)=O)NC(=O)[C@H](CC(N)=O)NC1=O)C(C)(C)C)[C@@H](C)O` [compound 129, Ac-(5Fluoro-W)-T-(Tbg)-C(3)-N-N-(4Fluoro-F)-H-D-C(3)-(7Aza-W)-(trans4Fluoro-P)-[D-Lys(DOTA)]-NH2] (Ac-[Trp(5-F)]T[Tle]CNN[Phe(4-F)]HDC[Trp(7-aza)][Pro(trans-4-F)][dK](DOTA)-NH2; disulfide 4-10), the Kd fell in the range of 10 to 100 nM.
